3 compounds from US20030040534A1, “Enantiomers of N-[[2'-[[(4,5-dimethyl-3-isoxazolyl)amino]sulfonyl]-4-(2-oxazolyl)[1,1'-biphenyl]-2-yl]methyl]-N,3,3-trimethylbutanamide” (priority 2001, published 2003) can be followed below.

In data set [1] the target is T1, human endothelin A receptor (Homo sapiens, UniProt P25101).
T1 construct: expressed in transfected cells; host or cells: CHO-K1 (G-418 selected)
T1 sequence (P25101 21-427): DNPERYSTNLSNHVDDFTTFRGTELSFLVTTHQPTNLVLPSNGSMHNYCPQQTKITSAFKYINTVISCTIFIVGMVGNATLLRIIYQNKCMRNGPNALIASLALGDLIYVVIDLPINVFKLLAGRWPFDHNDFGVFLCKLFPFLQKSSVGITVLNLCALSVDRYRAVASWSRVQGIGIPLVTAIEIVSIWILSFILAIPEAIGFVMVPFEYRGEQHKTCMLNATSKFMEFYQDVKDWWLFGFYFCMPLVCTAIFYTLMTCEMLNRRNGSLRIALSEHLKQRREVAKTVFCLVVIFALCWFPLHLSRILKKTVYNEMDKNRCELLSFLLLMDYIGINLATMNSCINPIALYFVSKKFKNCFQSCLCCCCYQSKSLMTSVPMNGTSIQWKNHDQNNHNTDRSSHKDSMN
The data set can be described thus: In vitro ETA binding, attached cell assay, [125I]-ET-1 competition. As to the method:
The isolated atropisomers of Example 2 were tested for in vitro ETA binding according to the following procedure:
CHO-K1 cells expressing the human endothelin A receptor were cultured in Ham's F12 media (Gibco/BRL, Grand Island, N.Y.) with 10% fetal bovine serum (Hyclone), supplemented with 300 μg/mL Geneticin (G-418 Gibco BRL Products, Grand Island, N.Y.) and maintained at 37° C. with 5% CO2 in a humidified incubator. Forty eight hours prior to assay, the cells were treated with 0.25% trypsin-EDTA and were seeded in Falcon, 96 well tissue culture plates at a density of 1.5×10^4 cells/well (the monolayer should reach 80-90% confluency by the day of assay).
In the attached cell assay, culture media was aspirated from each well and the monolayers were washed with 75 μl of room temperature PBS (Mg^++, Ca^++ free). After the addition of 75 μl of cold binding buffer to each well, the plate was chilled at 4° C. for 3 minutes before the addition of competing drugs and isotope. The binding assay was performed in a total volume of 125 μl consisting of assay buffer, maintained at 4° C. (50 mM Tris, pH 7.4, including 1% BSA, and 2 μM phosphoramidon), and 25 μl of either 500 nM ET-1 (to define nonspecific binding) or competing drugs. The reaction was initiated with the addition of 25 μl of 0.25 nM [^125I]-ET-1 (New England Nuclear). Incubation was carried out with gentle orbital shaking, at 4° C., reaching equilibrium at 4 hours. The reaction was terminated by aspiration of the reaction buffer and two subsequent washes with room temperature PBS (Mg^++, Ca^++ free). The cells were dissociated by the addition of 100 μl of 0.5N NaOH followed by incubation for 40 minutes. Samples were then transferred from the 96 well format into tubes for counting in a Cobra gamma counter (Packard). Data was analyzed with curve fitting software by Sigma plot.
In each assay run that was performed, one sample of each atropisomer as well as one sample of racemate was tested for activity.

The nature of data set [2]: In vitro interconversion (racemization) of enantiomeric atropisomers under pseudo-physiological conditions, chiral HPLC. As to the method:
The in vitro interconversion of N-[[2′-[[(4,5-dimethyl-3-isoxazolyl)amino]sulfonyl]-4-(2-oxazolyl)[1,1′-biphenyl]-2-yl]methyl]-N,3,3-trimethylbutanamide enantiomeric atropisomers was investigated using normal phase chiral HPLC with ultraviolet and laser polarimetric detection, under pseudo-physiological conditions, i.e., aqueous medium at 37° C., gastric fluid at 37° C. and human serum at 37° C.

The mark [3] stands for this setting: Table 1, 97% pure atropisomers of Example 2, Run 1, CHO-K1 cells expressing human ETA, 4° C., read-out: IC50 (nM) Run 1.
Where [4] appears, read: Table 1, 97% pure atropisomers of Example 2, Run 2, read-out: IC50 (nM) Run 2.
Where [5] appears, read: Table 1, 97% pure atropisomers of Example 2, Run 3, read-out: IC50 (nM) Run 3.
[6] abbreviates: Table 1, 97% pure atropisomers of Example 2, Run 4, read-out: IC50 (nM) Run 4.
Where [7] appears, read: Table 2, 99.2% pure atropisomers of Example 2, Run 1, read-out: IC50 (nM) Run 1.
Setting [8] is: Table 2, 99.2% pure atropisomers of Example 2, Run 2, read-out: IC50 (nM) Run 2.
The mark [9] stands for this setting: Table 2, 99.2% pure atropisomers of Example 2, Run 3, read-out: IC50 (nM) Run 3.
[10] abbreviates: Table 2, 99.2% pure atropisomers of Example 2, Run 4, read-out: IC50 (nM) Run 4.
Where [11] appears, read: Table 2, 99.2% pure atropisomers of Example 2, Run 5, read-out: IC50 (nM) Run 5.
Setting [12] is: Table 2, 99.2% pure atropisomers of Example 2, Run 6, read-out: IC50 (nM) Run 6.
Setting [13] is: Table 2, 99.2% pure atropisomers of Example 2, Run 7, read-out: IC50 (nM) Run 7.
Setting [14] is: Table 2, 99.2% pure atropisomers of Example 2, Run 8, read-out: IC50 (nM) Run 8.
[15] abbreviates: Table 2, 99.2% pure atropisomers of Example 2, Run 9, read-out: IC50 (nM) Run 9.

SMILES strings stand for the structures. Like-named read-outs stand apart in the source and are kept apart here.

Take `Cc1onc(NS(=O)(=O)c2ccccc2-c2ccc(-c3ncco3)cc2CN(C)C(=O)CC(C)(C)C)c1C` (racemic) [Racemate, N-[[2′-[[(4,5-dimethyl-3-isoxazolyl)amino]sulfonyl]-4-(2-oxazolyl)[1,1′-biphenyl]-2-yl]methyl]-N,3,3-trimethylbutanamide]: the concentration for half-maximal inhibition (IC50) (as a rule, the point on the concentration scale where inhibition reaches its midpoint) in data set [1] (IC50 (nM) Run 1, Table 1, 97% pure atropisomers of Example 2, Run 1, CHO-K1 cells expressing human ETA, 4° C.) was determined as 0.12 nM; in data set [1] (IC50 (nM) Run 1, Table 2, 99.2% pure atropisomers of Example 2, Run 1) it was 0.018 nM; in data set [1] (IC50 (nM) Run 2, Table 1, 97% pure atropisomers of Example 2, Run 2), 0.24 nM; in data set [1] (IC50 (nM) Run 2, Table 2, 99.2% pure atropisomers of Example 2, Run 2) it was 0.08 nM; in data set [1] (IC50 (nM) Run 3, Table 1, 97% pure atropisomers of Example 2, Run 3), 0.21 nM; in data set [1] (IC50 (nM) Run 3, Table 2, 99.2% pure atropisomers of Example 2, Run 3) it was 0.4 nM. In addition, the IC50 in data set [1] (IC50 (nM) Run 4, Table 1, 97% pure atropisomers of Example 2, Run 4) stood at 0.1 nM; in data set [1] (IC50 (nM) Run 4, Table 2, 99.2% pure atropisomers of Example 2, Run 4) it was 0.3 nM; in data set [1] (IC50 (nM) Run 5, Table 2, 99.2% pure atropisomers of Example 2, Run 5), 0.2 nM; in data set [1] (IC50 (nM) Run 6, Table 2, 99.2% pure atropisomers of Example 2, Run 6), 0.4 nM; in data set [1] (IC50 (nM) Run 7, Table 2, 99.2% pure atropisomers of Example 2, Run 7), 0.24 nM; in data set [1] (IC50 (nM) Run 8, Table 2, 99.2% pure atropisomers of Example 2, Run 8), 0.16 nM. In data set [1] (IC50 (nM) Run 9, Table 2, 99.2% pure atropisomers of Example 2, Run 9), this compound came in with an IC50 of 0.27 nM. Besides, the results for the half-life in data set [2] and in data set [2] (buffer) were 15.8 h and ~15 h, respectively.
As to `Cc1onc(NS(=O)(=O)c2ccccc2-c2ccc(-c3ncco3)cc2CN(C)C(=O)CC(C)(C)C)c1C` (single isomer, unassigned) [97% pure (+) dextrorotatory, N-[[2′-[[(4,5-dimethyl-3-isoxazolyl)amino]sulfonyl]-4-(2-oxazolyl)[1,1′-biphenyl]-2-yl]methyl]-N,3,3-trimethylbutanamide], the IC50 in data set [1] (setting [3]) was 0.03 nM; in data set [1] (setting [4]), 0.01 nM; in data set [1] (setting [5]), 0.01 nM; in data set [1] (setting [6]), 0.01 nM; in data set [1] (setting [7]) it was 0.002 nM; in data set [1] (setting [8]), 0.002 nM. For the same compound, the half-inhibitory concentration (IC50) was determined as 0.7 nM in data set [1] (setting [9]); 0.1 nM in data set [1] (setting [10]); 0.3 nM in data set [1] (setting [11]); 0.38 nM in data set [1] (setting [12]); 0.34 nM in data set [1] (setting [13]); 0.38 nM in data set [1] (setting [14]). For the same compound, the IC50 in data set [1] (setting [15]) amounted to 0.41 nM. In data set [1] (endothelin antagonist, statement in words), the “potency compared with the (−) levorotatory atropisomer or the racemate” value is recorded as “remarkably higher potency”.
For `Cc1onc(NS(=O)(=O)c2ccccc2-c2ccc(-c3ncco3)cc2CN(C)C(=O)CC(C)(C)C)c1C` (single isomer, unassigned) [97% pure (−) levorotatory, N-[[2′-[[(4,5-dimethyl-3-isoxazolyl)amino]sulfonyl]-4-(2-oxazolyl)[1,1′-biphenyl]-2-yl]methyl]-N,3,3-trimethylbutanamide], the IC50 in data set [1] (setting [3]) turned out to be 0.41 nM; in data set [1] (setting [4]), 0.9 nM; in data set [1] (setting [5]) it was 0.6 nM; in data set [1] (setting [6]) it was 1.4 nM; in data set [1] (setting [7]), 0.1 nM; in data set [1] (setting [8]) it was 0.65 nM. For the same compound, the IC50 in data set [1] (setting [9]) worked out at 6 nM; in data set [1] (setting [10]) it was 5 nM; in data set [1] (setting [11]), 7 nM; in data set [1] (setting [12]) it was 3.7 nM; in data set [1] (setting [13]), 21 nM; in data set [1] (setting [14]) it was 14 nM. The IC50 in data set [1] (setting [15]) is 19 nM.
